# Results: a melting point compilation (Tetko et al.; mined from patent text by program, amines drawn as free bases though some values may be those of a salt)
row,SMILES,melting point [°C]
1,Nc1nc(N)nc(C23CCN(CC2)CC3)n1,> 245
2,N#Cc1ccc(-c2ccc3c(c2)CCc2nn(-c4ccccn4)c(O)c2-3)cc1,274 to 275
3,N#CSc1ccc(N)c(F)c1,36 to 38
4,CNc1nc(-c2ccccc2)c(-c2nc3ccccc3c(=O)n2-c2ccccc2)s1,224 to 225
5,c1cc(CCCCCc2nnn[nH]2)n2cncc2c1,149 to 150
6,CCOc1nc(N2CCNCC2)nc(N2CCSCC2)c1[N+](=O)[O-],166 to 168
7,CC1C(=O)N(c2ccc(Sc3ccccc3)cc2)C(=S)N1c1ccccc1 (centres undefined),136 to 138
8,CC(=O)N1CCC(c2ccccc2)c2cccc(CCN3CCN(c4nsc5ccccc45)CC3)c21 (centres undefined),97
9,Oc1nsc(OC2CCCCC2)n1,105
10,O=C(OCOC(=O)C1CCc2c(c3ccccc3n2C(=O)c2ccccc2)C1)c1ccccc1 (centres undefined),84 to 86
11,O=C(O)c1ccc(C(=O)/C=C/c2ccc(-c3nccs3)cc2)cc1,232 to 235
12,OC[C@H]1O[C@@H](n2cnc3c(N[C@@H]4CCN(c5ccc(C(F)(F)F)cn5)C4)ncnc32)[C@H](O)[C@@H]1O,166 to 170
13,CC(C)(CS(=O)(=O)c1ccc(Oc2ccc(OC(F)(F)F)cc2)cc1)N(O)C=O,128 to 129
14,Cc1c(N2CCC3(CC3N)C2)c(F)cc2c(=O)c(C(=O)O)cn([C@@H]3C[C@@H]3F)c12 (some centres undefined),103 to 109
15,CC1(C)C=Cc2c(ccc3ncccc23)O1,104 to 107
16,COC(=O)Cn1c(C)cc(O)c([N+](=O)[O-])c1=O,187
17,COc1ccc(Nc2ccc(Nc3ccnc4cc(-c5ccc(OC)nc5)sc34)cc2)cc1,175 to 184
18,CC(=O)[C@@H]1C(=O)N(C(=O)OC(C)(C)C)[C@@H]1c1ccccc1,63 to 64
19,O=S(=O)(c1ccc(/C=C/c2nc(COc3ccc(CCCCn4ccnn4)cc3)co2)cc1)C(F)(F)F,133 to 135
20,O=C(OC1CCCC1)c1cc([N+](=O)[O-])c(F)cc1Cl,44 to 45
21,CC1=CSC(O)C(=O)N1 (centres undefined),166 to 168

row,SMILES,melting point [°C]
1,COc1ccccc1Oc1c(O)nc(SC)nc1O,206 to 210
2,Cc1noc(C)c1-c1ncccc1OC1SCC(O)C(O)C1O (centres undefined),112
3,CSSc1ccc([N+](=O)[O-])cc1,42.9 to 44.3
4,O=C(NCCO)c1cccc(-c2cccc3cc(OCc4cccc(C(F)(F)F)c4)nn23)c1,118 to 119
5,O=C(O)c1cccc(OCCCCCCc2cccc(O)c2O)c1,123 to 125
6,N#CC1(Nc2ccccc2)CCN([C@@H]2CC[C@H]3CCCc4cccc2c43)CC1 (racemic),142
7,N#Cc1ccc(NCC(=O)N2CCC(Cc3ccc(F)cc3)CC2)cc1,204 to 206
8,CN(C)C(=O)c1ccc(C=O)cc1,198 to 202
9,C[C@]1(COc2ccc(N3CCC(Oc4ccc(OC(F)(F)F)cc4)CC3)nc2)Cn2cc([N+](=O)[O-])nc2O1,186 to 187
10,CCOC(Nc1ccccc1)(OCC)C1(Cl)C=CN=C(C(=O)c2ccccc2)C1 (centres undefined),133 to 134
11,C=CCn1c2ccccc2c2sccc(=O)c21,67 to 68
12,Fc1cccc2c(OCCc3ccc(Oc4ccc(C(F)(F)F)cn4)cc3)ncnc12,116 to 118
13,C=CCSC(c1ccccc1)(c1ccccc1)c1ccccc1,99 to 101
14,C=CCc1cc(O)c(CC=C)c(C=O)c1O,102
15,C=CCC1(CC=C)CCC(=Cc2ccc(F)cc2)C1(O)Cn1cncn1 (centres undefined),112
16,O=C(OCc1ccccc1)N1CCC(C(=O)O)(c2ccccc2)CC1,142 to 144
17,CCOC1CC2(C)C(CCC3C4CCC(C(=O)CBr)C4(C)CC(=O)C32)CC1O (centres undefined),74 to 78
18,CN1CC=C(c2ccccc2Cc2ccccc2)CC1,55 to 57
19,Cc1cc(F)ccc1C(=Cc1nnnn1C)c1ccc(F)cc1C,120 to 125
20,CCOC(=O)c1nc2ccccn2c1-c1ccccc1,106

# Results, then the molecule that gave them:
row,melting point [°C],SMILES
1,145 to 146,COC(=O)c1ccc(OCCN2CCN(c3cc(Cl)nnc3Cl)CC2)nc1
2,131 to 133,COc1ccc2c(c1)C(=O)C(=Cc1ccccc1)C2
3,190 to 191,CCc1nc2c(N)nc3ccccc3c2n1CCCCS(=O)(=O)NC
4,197 to 198,COc1ccc(S(=O)(=O)N2c3ccccc3-c3ccc(F)cc3[C@@H]2C)cc1
5,45.6 to 46.8,Cc1ccc(CCC(=O)CC(=O)CCc2ccc(C)cc2)cc1
6,209,CC(C)CN(CC(C)C)S(=O)(=O)N[C@@H](Cc1ccc(NC(=O)c2c(Cl)cncc2Cl)cc1)C(=O)O
7,55 to 60,CCCCCCCCN(CCCCCCCC)C(=O)Nc1ccccc1CCc1cc(C(C)(C)C)c(O)c(C(C)(C)C)c1
8,75 to 78,O=C(NN1CCCCC1)C1=NN(c2ccc(Cl)cc2Cl)C(c2ccc(Cl)cc2)C1 (centres undefined)
9,173 to 176,Fc1ccc(Oc2ncc3c(-c4ccccc4Cl)n[nH]c3n2)c(F)c1
10,127 to 128,CC(C)OC(=O)Cn1c(=O)n(C)c(=O)n(-c2ccc(F)cc2Cl)c1=O
11,222 to 223,Cc1oc2c(-c3ccc(F)cc3)c(-c3ccc(S(C)(=O)=O)cc3)nn2c1-c1ccc(Cl)s1
12,116 to 118,C=C1N(C)C(=O)OC12CCN(CCCN1c3ccccc3Sc3ccc(C(F)(F)F)cc31)CC2
13,140 to 142,CC(C)c1cccc(C(C)C)c1NS(=O)(=O)NC(=O)N(Cc1ccccc1)Cc1ccccc1
14,248,O=C(O)c1ccc(COCc2csc3nc(C(=O)O)[nH]c(=O)c23)cc1
15,115,O=C1C2CN(CCc3ccc(Cl)cc3)CC2C(=O)N1c1cc(Cl)cc(Cl)c1 (centres undefined)
16,168 to 172,Nc1ncc(C#Cc2ccc(Cl)cc2)c(OC2CCC(=O)CC2)n1
17,215 to 216,Cc1[nH]cnc1CN1CCc2c(c3cccc4c3n2CCCC4)C1=O
18,228 to 230,COc1ccc2c(c1)c1c3c(c(-c4ccccc4Cl)cc1n2CCCO)C(=O)NC3=O
19,105,Cc1cc(Cl)ccc1Oc1cccc(-c2ncccn2)n1
20,186,COc1ccccc1CC1NC(=O)NC1=O (centres undefined)

row,melting point [°C],SMILES
1,167 to 169,CC(=O)OC12Oc3cc(C)ccc3C1(OC(C)=O)C(=O)c1ccccc12 (centres undefined)
2,101,CN(CCCl)S(=O)(=O)c1ccc2ccccc2c1
3,230 to 232,CCc1cc(C(=O)c2ccccc2Cl)c(-n2c(CNC(=O)c3cc4ccccc4[nH]3)nnc2-c2ccccc2)s1
4,231 to 233,CC(=O)c1cnc2c(NC(=O)c3c(Cl)cccc3Cl)cccc2c1N1CCOCC1
5,93 to 95,CCCc1c(OCCCSc2ccc(C(=O)COC(C)=O)cn2)ccc(C(C)=O)c1O
6,86 to 89,COc1cccc2c(Cl)c(CCCCl)cnc12
7,234 to 237,Cc1cc(O)c2cc(C)c(-c3ccc(Cl)cc3Cl)n2n1
8,118 to 120,CN1C(=O)C(c2cccc(O)c2)(c2cnn(CC(F)(F)F)c2)N=C1N (centres undefined)
9,70 to 95,O=C(NC1(C(=O)O)CCc2cc(O)ccc2C1)C(F)(F)F (centres undefined)
10,120 to 121,COc1cc(COc2cccc(S(=O)(=O)c3ccc(C)nc3Nc3c(C)cc(C)cc3C)c2)cc(OC)c1
11,210 to 211,CCC(CC)Nc1c(NCc2ccc(Cl)cc2Cl)c(=O)c1=O
12,123 to 125,CCn1c(=O)n(CCCCC(C)=O)c(=O)c2c1ncn2Cc1ccccc1
13,118 to 120,O=c1[nH]nccc1NCCCNCCOc1cccc2c1OCCO2
14,188 to 190,N#Cc1ccc(C(=O)Cc2ccc(C#N)cc2[N+](=O)[O-])cc1
15,210,CCCC(=O)Nc1ccc2[nH]c(C(=O)O)cc2c1
16,87.8 to 89.4,CCCNC(=O)N(Cc1ccc(C)cc1)NC(=O)OC(C)(C)C
17,63,CC#CCOc1ccc(S(=O)(=O)C(CCCCCC#N)C(=O)OCC)cc1 (centres undefined)
18,132,COc1cc(C)cc(OC)c1N(CCC(C)C)C(=O)CNC(=O)OC(C)(C)C
19,155,CCOC(=O)CSc1nc(Nc2ccc(OC)c(Cl)c2)cc(-c2ccccc2)n1
20,228 to 230,CC(C)n1nc(-c2sc(NC(=O)c3ccccc3)nc2-c2ccc(F)cc2)ccc1=O

row,melting point [°C],SMILES
1,147 to 149,COc1cc2c(=O)c(C#N)c[nH]c2cc1F
2,207,O=C(O)CCc1cc2cc(Cl)ccc2n1S(=O)(=O)c1ccc2c(c1)OCO2
3,156 to 157,COc1ccc(C2=NN(c3nc(C)ccc3C(F)(F)F)C(=O)C3CC=CCC23)cc1Cl (centres undefined)
4,146 to 149,Cc1nc2ccccc2n1CCCNCC(O)COc1ccc(CC(N)=O)cc1 (centres undefined)
5,67.9,COC(=O)C(Cc1ccc(Cl)cc1Cl)c1ccccc1Cl (centres undefined)
6,109 to 115,CC(C)CC(NS(=O)(=O)c1cccc2ccccc12)C(=O)NC(C(C)C)C(O)c1c(-c2ccccc2)c1=O (centres undefined)
7,127 to 128,Cc1cc(Cl)cc(C(=O)NCC2CC2)c1N
8,154 to 155,CC(=O)Nc1cc(Cl)c(C)cc1Br
9,231,Cc1nc2scc(C)n2c(=O)c1CCN1CCC(c2noc3cc(F)ccc23)CC1
10,177 to 178,COc1ccc(S(=O)(=O)NCCc2ccc(C(=O)O)cc2)cc1
11,203 to 204,COC1OCC[C@@H]1N(C(=O)CNC(=O)COc1ccc2c(c1)Nc1ccccc1S2)[C@@H](Cc1ccccc1)C(N)=O (some centres undefined)
12,148 to 150,COCCOc1nc2cc(-c3ccc(OC)cc3)nnc2c2ccccc12
13,172 to 173,CCCC12CCC(=O)C=C1c1c(cc(OC)c(Cl)c1Cl)O2 (centres undefined)
14,96 to 99,CCCCCCCCOC(=O)Nc1c2c(nc3ccccc13)CCCC2
15,100 to 104,O=c1n(-c2ccc(Cl)cc2Cl)nc2n1CCCC2
16,180 to 182,Cc1cc(-n2cnn(Cc3ccc(F)cc3)c2=O)sc1C(=O)NCc1cccnc1
17,91 to 92,CCCc1nn(-c2ccc(C(F)(F)F)cn2)cc1CCCCOc1ccc(CCC(=O)O)c(OC)c1
18,152 to 154,C=CCSc1cc(C(=O)O)cc([N+](=O)[O-])c1-c1ccccc1
